Results: patent publication US6380218B1, “Nicotinamide derivatives” (Pfizer Inc, priority 1997, dated 2002)
Structures can show the parent of a compound that is named as a salt.

Structure (SMILES)	melting point
COC(=O)c1ccc(CNC(=O)c2cccnc2Oc2cccnc2)cc1 [Example 37, 4-({[2-(Pyridin-3-yloxy)-pyridine-3-carbonyl]-amino}-methyl)-benzoicacid methyl ester]	125 to 127 °C
CC(=O)c1cccc(Oc2ncccc2C(=O)NCc2ccc([C@@H](C)O)cc2)c1 [Example 307, (R)-(+)-2-(3-Acetyl-phenoxy)-N-(4-(1-hydroxy-ethyl)-benzyl)-nicotinamide]	104 to 106 °C
CC(=O)c1ccc(Oc2ncccc2C(=O)NCc2ccc(C(C)(C)O)cc2)cc1 [Example 236, 2-(4-Acetyl-phenoxy)-N-[4-(1-hydroxy-1-methyl-ethyl)-benzyl]-nicotinamide]	95 to 97 °C
CC(C)(O)c1ccc(CNC(=O)c2cccnc2Oc2ccc(F)c(F)c2)cc1 [Example 231, 2-(3,4-Difluoro-phenoxy)-N-[4-(1-hydroxy-1-methyl-ethyl)-benzyl]-nicotinamide]	98 to 100 °C
O=C(NCc1cc(Cl)cs1)c1cccnc1Oc1cncc(Cl)c1 [Example 55, 2-(5-Chloro-pyridin-3-yloxy)-N-(4-chloro-thiophen-2-ylmethyl)-nicotinamide]	94 to 96 °C
O=C(Cc1ccccc1Cl)Nc1cccnc1Oc1cccnc1 [Example 185, 2-(2-Chloro-phenyl)-N-[2-(pyridin-3-yloxy)-pyridin-3-yl]-acetamide]	137 to 139 °C
Cc1cc(CNC(=O)c2cccnc2Oc2cccc([N+](=O)[O-])c2)cc(C)c1O [Example 108, N-(4-Hydroxy-3,5-dimethyl-benzyl)-2-(3-nitro-phenoxy)-nicotinamide]	128 to 130 °C
CC(NC(=O)c1cccnc1Oc1ccc(F)cc1)c1ccc(Br)cc1 (centres unmarked) [Example 82, N-[1-(4-Bromo-phenyl)-ethyl]-2-(4-fluoro-phenoxy)-nicotinamide]	120 to 122 °C
O=C(NCc1ccco1)c1cccnc1Oc1ccc(F)cc1 [Example 2, 2-(4-Fluoro-phenoxy)-N-furan-2-ylmethyl-nicotinamide]	71 to 73 °C
CC(C)(O)c1ccc(CNC(=O)c2cccnc2Oc2cccc(S(C)(=O)=O)c2)cc1 [Example 207, N-[4-(1-Hydroxy-1-methyl-ethyl)-benzyl]-2-(3-methanesulfonyl-phenoxy)-nicotinamide]	51 to 53 °C
CC(=O)c1cc(Cl)cc(Oc2ncccc2C(=O)NC[C@H]2CC[C@H](C(C)(C)O)CC2)c1 [Example 308, 2-(3-Acetyl-5-chloro-phenoxy)-N-(trans-4-(1-hydroxy-1-methyl-ethyl)-cyclohexylmethyl)-nicotinamide]	133 to 135 °C
O=C(CCc1cc(F)cc(F)c1)c1cccnc1Oc1ccc(F)cc1 [Example 254, 3-(3,5-Difluoro-phenyl)-1-[2-(4-fluoro-phenoxy)-pyridin-3-yl]-propan-1-one]	69 to 70 °C
NS(=O)(=O)N1CCC(CNC(=O)c2cccnc2Oc2cccnc2)CC1 [Example 179, 2-(Pyridin-3-yloxy)-N-(1-sulfamoyl-piperidin-4-ylmethyl)-nicotinamide]	165 to 166 °C
CC(=O)Nc1ccc(CNC(=O)c2cccnc2Oc2ccc(F)cc2)cc1 [Example 124, N-(4-Acetylamino-benzyl)-2-(4-fluoro-phenoxy)-nicotinamide]	128 to 130 °C
CC(C)(O)c1ccc(CNC(=O)c2cccnc2Oc2cc(F)cc(F)c2)cc1 [Example 238, 2-(3,5-Difluoro-phenoxy)-N-[4-(1-hydroxy-1-methyl-ethyl)-benzyl]-nicotinamide]	68 to 70 °C
CC(C)(O)c1ccc(CNC(=O)c2cccnc2Oc2ccc(F)cc2)o1 [Example 79, 2-(4-Fluoro-phenoxy)-N-[5-(1-hydroxy-1-methyl-ethyl)-furan-2-ylmethyl]-nicotinamide]	88 to 90 °C
Cc1noc2c(Oc3ncccc3C(=O)NCC3CCC(C(C)(C)O)CC3)cccc12 (centres unmarked) [Example 317, N-(4-(1-Hydroxy-1-methyl-ethyl)-cyclohexylmethyl)-2-(3-methyl-benzo(d)-isoxazol-7-yloxy)-nicotinamide]	170 to 172 °C
O=C(NCc1ccccc1Cl)c1cccnc1Oc1cccnc1 (as salt: HCl) [Example 31, N-(2-Chloro-benzyl)-2-(pyridin-3-yloxy)-nicotinamide]	174 to 176 °C
CC(=O)c1cccc(Oc2ncccc2C(=O)NCc2ccncc2)c1 [Example 220, 2-(3-Acetyl-phenoxy)-N-pyridin-4-ylmethyl-nicotinamide]	148 to 150 °C
CC(=O)c1cccc(Oc2ncccc2C(=O)NCc2ccc(S(N)(=O)=O)cc2)c1 [Example 224, 2-(3-Acetyl-phenoxy)-N-(4-sulfamoyl-benzyl)-nicotinamide]	162 to 164 °C
N#Cc1cccc(Oc2ncccc2C(=O)NCc2ccc(S(N)(=O)=O)cc2)c1 [Example 196, 2-(3-Cyano-phenoxy)-N-(4-sulfamoyl-benzyl)-nicotinamide]	179 to 180 °C
CC(C)(C)c1cc(CNC(=O)c2cccnc2Oc2cccnc2)cc(C(C)(C)C)c1O [Example 34, N-(3,5-Di-tert-butyl-4-hydroxy-benzyl)-2-(pyridin-3-yloxy)-nicotinamide]	42 to 44 °C

Structure (SMILES)	melting point
O=C(CCc1ccc(F)cc1)c1cccnc1Oc1cccnc1 [Example 258, 3-(4-Fluoro-phenyl)-1-[2-(pyridin-3-yloxy)-pyridin-3-yl]-propan-1-one]	62 to 64 °C
O=C(NCc1ccccc1Cl)c1cccnc1Oc1cccc(F)c1 [Example 11, N-(2-Chloro-benzyl)-2-(3-fluoro-phenoxy)-nicotinamide]	115 to 117 °C
O=C(NCc1nccs1)c1cccnc1Oc1cccnc1 [Example 24, 2-(Pyridin-3-yloxy)-N-thiazol-2-ylmethyl-nicotinamide]	94 to 96 °C
O=C(NCc1ccc(C2(O)CCC2)cc1)c1cccnc1Oc1ccc(F)c(F)c1 [Example 232, 2-(3,4-Difluoro-phenoxy)-N-[4-(1-hydroxy-cyclobutyl)-benzyl]-nicotinamide]	74 to 76 °C
O=C(NCc1ccccn1)c1cccnc1Oc1cccnc1 [Example 181, N-Pyridin-2-ylmethyl-2-(pyridin-3-yloxy)-nicotinamide]	118 to 119 °C
CC(C)(O)c1ccc(CC(=O)Nc2cccnc2Oc2ccc(F)cc2)cc1 [Example 203, N-[2-(4-Fluoro-phenoxy)-pyridin-3-yl]-2-[4-(1-hydroxy-1-methyl-ethyl)-phenyl]-acetamide]	135 to 137 °C
CC(=O)c1cccc(Oc2ncccc2C(=O)NCc2ccc([C@H](C)O)cc2)c1 [Example 306, (S)-(−)-2-(3-Acetyl-phenoxy)-N-(4-(1-hydroxy-ethyl)-benzyl)-nicotinamide]	102 to 104 °C
O=C(Nc1ccc2[nH]c(=O)oc2c1)c1cccnc1Oc1ccc(F)cc1 [Example 74, 2-(4-Fluoro-phenoxy)-N-(2-oxo-2,3-dihydro-benzooxazol-6-yl)-nicotinamide]	289 to 291 °C
NS(=O)(=O)c1ccc(CNC(=O)c2cccnc2Oc2ccc(F)cc2)cc1 [Example 193, 2-(4-Fluoro-phenoxy)-N-(4-sulfamoyl-benzyl)-nicotinamide]	222 to 223 °C
O=C(NCc1ccc(C2(O)CCC2)cc1)c1cccnc1Oc1ccc(F)cc1 [Example 85, 2-(4-Fluoro-phenoxy)-N-[4-(1-hydroxy-cyclobutyl)-benzyl]-nicotinamide]	95 to 97 °C
CC(C)(O)C1CCC(CNC(=O)c2cccnc2Oc2ccc(F)c(C#N)c2)CC1 (centres unmarked) [Example 322, 2-(3-Cyano-4-fluoro-phenoxy)-N-[4-(1-hydroxy-1-methyl-ethyl)-cyclohexylmethyl]-nicotinamide]	85 to 88 °C
O=C(NCc1ccc(Cl)s1)c1cccnc1Oc1cccc([N+](=O)[O-])c1 [Example 109, N-(5-Chloro-thiophen-2-ylmethyl)-2-(3-nitro-phenoxy)-nicotinamide]	115 to 117 °C
COc1cccc(Oc2ncccc2C(=O)NCc2ccc(C(C)(C)O)cc2)c1 [Example 201, N-[4-(1-Hydroxy-1-methyl-ethyl)-benzyl]-2-(3-methoxy-phenoxy)-nicotinamide]	69 to 71 °C
CC(C)(O)c1ccc(CNC(=O)c2cccnc2Oc2ccc(F)c(C#N)c2)cc1 [Example 243, 2-(3-Cyano-4-fluoro-phenoxy)-N-[4-(1-hydroxy-1-methyl-ethyl)-benzyl]-nicotinamide]	147 to 149 °C
NS(=O)(=O)N1CCC(CNC(=O)c2cccnc2Oc2ccc(F)cc2)CC1 [Example 194, 2-(4-Fluoro-phenoxy)-N-(1-sulfamoyl-piperidin-4-ylmethyl)-nicotinamide]	225 to 226 °C
CN(C)c1ccc(CNC(=O)c2cccnc2Oc2ccc(F)cc2)cc1 [Example 247, N-[[4-(Dimethylamino)phenyl]methyl]-2-(4-fluorophenoxy)-3-pyridinecarboxamide]	99.5 to 101.5 °C
O=C1CCC(CNC(=O)c2cccnc2Oc2ccc(F)cc2)CC1 [Example 286, 2-(4-Fluoro-phenoxy)-N-(4-oxo-cyclohexylmethyl)-nicotinamide]	157 to 159 °C
O=C(NCc1ccc(Cl)s1)c1cccnc1Oc1ccc(F)cc1 [Example 61, N-(5-Chloro-thiophen-2-ylmethyl)-2-(4-fluoro-phenoxy)-nicotinamide]	91 to 93 °C
C[C@H](NC(=O)c1cccnc1Oc1ccc(F)cc1)c1cccs1 [Example 6, (S)(−)2-(4-Fluoro-phenoxy)-N-(1-thiophen-2-yl-ethyl)-nicotinamide]	59 to 61 °C
O=C(NCc1cccs1)c1cccnc1Oc1ccc(F)cc1 [Example 1, 2-(4-Fluoro-phenoxy)-N-thiophen-2-ylmethyl-nicotinamide]	89 to 91 °C
CC(C)(O)c1ccc(CNC(=O)c2cccnc2Oc2cccc3c2CCC3=O)cc1 [Example 284, N-[4-(1-Hydroxy-1-methyl-ethyl)-benzyl]-2-(1-oxo-indan-4-yloxy)-nicotinamide]	145 to 147 °C
CCCCNC(=O)c1cccnc1Oc1cccnc1 [Example 174, N-Butyl-2-(pyridin-3-yloxy)-nicotinamide]	55 to 56 °C
